Changes are numbered by the printed parent chain. Several values for one entry are separate records, joined by “and”; a condition that tells them apart may be missing. Identical values can stand only once. Square brackets hold non-standard residues; d marks the D form. Peptide text beside a SMILES is read from it. * marks the point of attachment. FITC = O=C1OC2(c3ccc(O)cc3Oc3cc(O)ccc32)c2ccc(NC(=S)*)cc21; Nle = CCCC[C@H](N)C(=O)O; For = O=C*
How the values were obtained:
[1] = system: FPR1 haplotype CH10; assay: FACScan saturation binding of fNLFNYK–FITC, CH10 cells; design: species or system human; conditions: CHO-Gα16 cells, 4°C, 1 h
Method: (§1) Stable clones expressing FPR1 haplotypes were selected after 10 days of culture under the selection of 600 μg/ml G418 and identified by FACScan analysis after binding of 20 nM of the fluorescent ligand fNLFNYK–FITC to the CHO cell transfectants for 45 min at 4°C.
(§2) CHO cells were added to 3 mM KCl, 100 mM NaCl, 10 mM sodium phosphate, 1 mM Mg^2+ and 1 mM Ca^2+, pH 7.4, containing 5% fetal bovine serum and incubated at 4°C for 1 h with various concentrations of fNLFNYK–FITC. The mean fluorescence of the cells was determined after subtracting the readout of cells without fNLFNYK–FITC. The results were analysed by non-linear least squares analysis to determine Kd and Bmax values. […] Data from at least two different experiments in duplicate were analysed.

[2] = system: FPR1 haplotype CH7; assay: FACScan saturation binding of fNLFNYK–FITC, CH7 cells; design: species or system human; conditions: CHO-Gα16 cells, 4°C, 1 h
Method: as §1, §2

[3] = molecular target: T1, FPR1 haplotype CH9 (Homo sapiens, UniProt P21462, E346A/I11T/R190W/V101L); assay: FACScan saturation binding of fNLFNYK–FITC, CH9 cells; conditions: CHO-Gα16 cells, 4°C, 1 h
T1 construct: expressed in transfected cells
T1 sequence (P21462 1-350 I11T/V101L/R190W/E346A): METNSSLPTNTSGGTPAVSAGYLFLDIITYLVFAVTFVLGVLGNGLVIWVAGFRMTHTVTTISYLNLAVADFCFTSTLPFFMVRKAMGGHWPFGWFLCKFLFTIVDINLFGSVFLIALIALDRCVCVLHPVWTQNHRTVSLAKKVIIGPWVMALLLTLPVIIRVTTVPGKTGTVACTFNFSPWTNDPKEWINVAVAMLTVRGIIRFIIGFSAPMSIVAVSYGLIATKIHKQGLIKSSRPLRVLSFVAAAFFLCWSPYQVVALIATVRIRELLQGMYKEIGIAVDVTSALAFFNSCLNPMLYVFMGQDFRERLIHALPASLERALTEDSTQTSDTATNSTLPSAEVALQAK
Method: as §1, §2

[4] = molecular target: T2, FPR1 haplotype CH12 (Homo sapiens, UniProt P21462, V101L); assay: FACScan saturation binding of fNLFNYK–FITC, CH12 cells; conditions: CHO-Gα16 cells, 4°C, 1 h
T2 construct: expressed in transfected cells
T2 sequence (P21462 1-350 V101L): T1 sequence (P21462 1-350 I11T/V101L/R190W/E346A) with T11I, W190R, A346E
Method: as §1, §2

[5] = molecular target: T3, FPR1 haplotype CH5 (Homo sapiens, UniProt P21462, E346A/I11T/N192K/V101L); assay: FACScan saturation binding of fNLFNYK–FITC, CH5 cells; conditions: CHO-Gα16 cells, 4°C, 1 h
T3 construct: Vectors including FPR1 ORFs were transfected into CHO-Gα16 cells; expressed in transfected cells
T3 sequence (P21462 1-350 I11T/V101L/N192K/E346A): T1 sequence (P21462 1-350 I11T/V101L/R190W/E346A) with W190R, N192K
Method: as §1, §2

[6] = molecular target: T4, FPR1 haplotype CH4 (Homo sapiens, UniProt P21462, I11T); assay: FACScan saturation binding of fNLFNYK–FITC, CH4 cells; conditions: CHO-Gα16 cells, 4°C, 1 h
T4 construct: Vectors including FPR1 ORFs were transfected into CHO-Gα16 cells; expressed in transfected cells
T4 sequence (P21462 1-350 I11T): T1 sequence (P21462 1-350 I11T/V101L/R190W/E346A) with L101V, W190R, A346E
Method: as §1, §2

[7] = molecular target: T5, FPR1 haplotype CH6 (Homo sapiens, UniProt P21462, E346A/I11T/R190W); assay: FACScan saturation binding of fNLFNYK–FITC, CH6 cells; conditions: CHO-Gα16 cells, 4°C, 1 h
T5 construct: Vectors including FPR1 ORFs were transfected into CHO-Gα16 cells; expressed in transfected cells
T5 sequence (P21462 1-350 I11T/R190W/E346A): T1 sequence (P21462 1-350 I11T/V101L/R190W/E346A) with L101V
Method: as §1, §2

[8] = molecular target: T6, FPR1 haplotype CH11 (Homo sapiens, UniProt P21462); assay: FACScan saturation binding of fNLFNYK–FITC, CH11 cells; conditions: CHO-Gα16 cells, 4°C, 1 h
T6 construct: expressed in transfected cells
T6 sequence (P21462 1-350): T1 sequence (P21462 1-350 I11T/V101L/R190W/E346A) with T11I, L101V, W190R, A346E
Method: (§3) Transfection of FPR1 haplotype cDNAs into CHO-Gα16 cells was carried out with the Gene Pulser Xcell Electroporation System from Bio-Rad Laboratories. […] Vectors containing the ORFs of the human FPR1 gene (8 μg in a volume of 8 μl) were added to the cells. Following a 280 V and 20 ms pulse (squarewave), the cells were immediately returned to 10 ml of culture medium and incubated for 24 h. Stable clones expressing FPR1 haplotypes were selected after 10 days of culture under the selection of 600 μg/ml G418 and identified by FACScan analysis after binding of 20 nM of the fluorescent ligand fNLFNYK–FITC to the CHO cell transfectants for 45 min at 4°C.
as §2

[9] = system: FPR1 haplotypes; assay: FACScan binding of fNLFNYK–FITC, different FPR1 haplotypes; design: species or system human; conditions: different FPR1 haplotypes CH1–CH12
Method: as §3, §2

[10] = molecular target: T7, FPR1 haplotype CH2 (Homo sapiens, UniProt P21462, E346A/I11T); assay: FACScan saturation binding of fNLFNYK–FITC, CH2 cells; conditions: CHO-Gα16 cells, 4°C, 1 h
T7 construct: Vectors including FPR1 ORFs were transfected into CHO-Gα16 cells; expressed in transfected cells
T7 sequence (P21462 1-350 I11T/E346A): T1 sequence (P21462 1-350 I11T/V101L/R190W/E346A) with L101V, W190R
Method: as §1, §2

[11] = molecular target: T8, FPR1 haplotype CH3 (Homo sapiens, UniProt P21462, E346A/I11T/N192K); assay: FACScan saturation binding of fNLFNYK–FITC, CH3 cells; conditions: CHO-Gα16 cells, 4°C, 1 h
T8 construct: Vectors including FPR1 ORFs were transfected into CHO-Gα16 cells; expressed in transfected cells
T8 sequence (P21462 1-350 I11T/N192K/E346A): T1 sequence (P21462 1-350 I11T/V101L/R190W/E346A) with L101V, W190R, N192K
Method: as §1, §2

[12] = molecular target: T9, FPR1 haplotype CH8 (Homo sapiens, UniProt P21462, I11T/V101L); assay: FACScan saturation binding of fNLFNYK–FITC, CH8 cells; conditions: CHO-Gα16 cells, 4°C, 1 h
T9 construct: Vectors including FPR1 ORFs were transfected into CHO-Gα16 cells; expressed in transfected cells
T9 sequence (P21462 1-350 I11T/V101L): T1 sequence (P21462 1-350 I11T/V101L/R190W/E346A) with W190R, A346E
Method: as §1, §2

[13] = molecular target: T10, FPR1 haplotype CH1 (Homo sapiens, UniProt P21462, E346A/I11T/V101L); assay: FACScan saturation binding of fNLFNYK–FITC, CH1 cells; conditions: CHO-Gα16 cells, 4°C, 1 h
T10 construct: Vectors including FPR1 ORFs were transfected into CHO-Gα16 cells; expressed in transfected cells
T10 sequence (P21462 1-350 I11T/V101L/E346A): T1 sequence (P21462 1-350 I11T/V101L/R190W/E346A) with W190R
Method: as §1, §2

[14] = system: CHO-Gα16-FPR1 haplotype-expressing cells; assay: Calcium mobilization by fMLF, four cell lines; type: cell-based, human; conditions: CH1, CH2, CH3 and CH5 cells; different concentrations of fMLF
Method: A calcium mobilization assay was performed as described previously with minor modifications [33]. Briefly, CHO-Gα16-FPR1 cells were plated on to 96-well plates at a density of 15000 cells in 100 μl of medium per well and incubated for 24 h. Cells were loaded with 5 μM Fluo-4/AM in HBSS (Hanks balanced saline solution) supplemented with 2.5 mM probenecid for 45 min and then washed twice with HBSS.

[15] = system: CHO-Gα16-FPR1 cells; assay: fMLF-induced ERK1/2 phosphorylation, CHO-Gα16-FPR1 cells; type: cell-based, human; conditions: fMLF 10 nM, 5 min, Western blot
Method: Activation of the p44/p42 MAPKs (ERK1/2) was determined as described previously [12] with modest modifications. Briefly, cells were cultured in 24-well plates at 5×10^5 cells/well for 24 h and serum starved for 2 h. They were pretreated with the indicated amounts of cyclosporins for 5 min before fMLF (10 nM) stimulation in HBSS/BSA. […] Samples were transferred to microcentrifuge tubes and sonicated twice for 5 s each to disperse DNA contents. After boiling, samples were analysed by SDS/PAGE and Western blotting using anti-ERK1/2 and anti-phospho-ERK1/2 antibodies at a 1:1000 dilution. Horseradish peroxidase-conjugated anti-rabbit antibody (1:3000 dilution) was used as the secondary antibody. The resulting immunocomplex was visualized using the SuperSignal West Pico chemiluminescence kit (Pierce Biotechnology) according to the manufacturer's instructions. The relative intensities of the bands from the PVDF membrane (Millipore) were quantified using the ChemDoc MP System (Bio-Rad) and Image-Pro Plus software (MediaCybernetics).

Bmax [3]	Bmax [4]	Bmax [5]	Bmax [6]	Bmax [7]	Bmax [8]	receptor affinity of fNLFNYK–FITC (in words) [9]	Bmax [10]	Bmax [11]	Bmax [12]	Bmax [13]	Compound	Kd ([1]; CH10 (T11/L101/W190/N192/E346), pH 7.4, FACScan, at least two experiments in duplicate) [nM]	Bmax ([1]; CH10, FACScan)	Kd ([2]; CH7 (T11/V101/R190/K192/E346), pH 7.4, FACScan, at least two experiments in duplicate) [nM]	Bmax ([2]; CH7, FACScan)	calcium mobilization (in words) [14]	phosphorylation of ERK1/2 (in words) [15]
39009±6672	65059 and 65059±3570	42575±4902	33860 and 33860±4977	34093±693	37713±5841	varied moderately	47657±9098	59135±4185	36362±353	48336±4553	CCCC[C@H](NC=O)C(=O)N[C@@H](CC(C)C)C(=O)N[C@@H](Cc1ccccc1)C(=O)N[C@@H](CCCC)C(=O)N[C@@H](Cc1ccc(O)cc1)C(=O)N[C@@H](CCCCNC(=S)Nc1ccc2c(c1)C(=O)OC21c2ccc(O)cc2Oc2cc(O)ccc21)C(=O)O [fNLFNYK–FITC, N-formyl-Nle-Leu-Phe-Nle-Tyr-Lys–FITC] (For-[Nle]LF[Nle]YK(FITC)-OH; N-terminus and C-terminus assumed)	2.4 ± 0.3	41751±615	1.7 ± 0.3	60688±10388	–	–
–	–	–	–	–	–	–	–	–	–	–	N-formyl-methionyl-leucyl-phenylalanine [fMLF]	–	–	–	–	elicited calcium mobilization dose-dependently	significant increase

Source: paper PMC3632010, “V101L of human formyl peptide receptor 1 (FPR1) increases receptor affinity and augments the antagonism mediated by cyclosporins” (Biochemical Journal, 2013)
